What was measured:
Fibrinogen-D fragment = experiment: Isothermal titration calorimetry (VP-ITC) of Coa peptides with Fg-D fragment; parameters: species or system human; conditions: one-binding site model, 10 μM Fg-D, read-out: dissociation constant (KD) to Fg-D
Procedure: Binding isotherms for the interaction of Fg-D with Coa peptide sCoa-RI (FIG. 14A), sCoa-R13 (FIG. 14B) and sCoa-RV (FIG. 14C) were generated by titrating the peptides (˜200 μM) into an ITC cell containing 10 μM Fg-D. The top panels show heat difference upon injection of coa peptides, and the lower panels show integrated heat of injections. The data were fitted to a one-binding site model (bottom panels), and binding affinities are expressed as dissociation constants (KD) or the reciprocal of the association constants determined by Microcal Origin software. N represents the binding ratio. To generate more quantitative binding data for the Coa peptide Fg interaction isothermal titration calorimetry and titrated the Coa peptides into a solution containing a fixed concentration of Fg-D fragments was used.
Isothermal titration calorimetry—The interaction between Coa peptides and the soluble, isolated Fibrinogen-D fragment was further characterized by isothermal titration calorimetry (ITC) using a VP-ITC microcalorimeter. The Fibrinogen-D fragment used in these studies was generated by digesting full length Fibrinogen with plasmin for 4 h and fractionating the digestion products by gel filtration chromatography. The ITC cell contained 10 μM Fibrinogen-D fragments and the syringe contained 150-200 μM Coa peptides in TBS (25 mM Tris, 3.0 mM KCl and 140 mM NaCl, pH 7.4). […]

rCoa binding to Fg = target: T1, rCoa binding to Fg (Homo sapiens, UniProt P02671+P02675+P02679); experiment: Competition ELISA, peptide inhibition of recombinant Coa binding to Fg; conditions: increasing concentrations of peptide; 4 nM GST-tagged Coa proteins
T1 construct: full-length human Fibrinogen (diluted in PBS, Enzyme research); purchased Enzyme research; host or cells: Coa probe made in E. coli BL21
T1 sequence (P02671 20-629 limits assumed): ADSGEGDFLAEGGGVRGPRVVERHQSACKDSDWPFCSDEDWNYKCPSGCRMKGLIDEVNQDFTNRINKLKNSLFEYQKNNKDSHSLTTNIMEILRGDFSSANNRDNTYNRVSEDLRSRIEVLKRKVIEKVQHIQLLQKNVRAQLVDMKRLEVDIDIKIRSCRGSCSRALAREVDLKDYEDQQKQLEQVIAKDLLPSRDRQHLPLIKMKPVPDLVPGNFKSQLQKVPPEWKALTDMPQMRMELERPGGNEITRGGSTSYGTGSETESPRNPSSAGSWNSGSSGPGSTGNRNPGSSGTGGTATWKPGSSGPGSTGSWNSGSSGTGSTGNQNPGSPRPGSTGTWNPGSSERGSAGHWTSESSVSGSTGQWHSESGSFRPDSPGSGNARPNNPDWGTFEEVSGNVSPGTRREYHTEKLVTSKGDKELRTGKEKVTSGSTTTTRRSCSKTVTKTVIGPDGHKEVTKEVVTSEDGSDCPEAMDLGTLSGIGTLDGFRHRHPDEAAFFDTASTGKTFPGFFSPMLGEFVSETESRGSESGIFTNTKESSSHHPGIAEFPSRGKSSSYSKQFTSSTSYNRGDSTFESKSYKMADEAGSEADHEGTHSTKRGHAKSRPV
T1 sequence (P02675 31-491): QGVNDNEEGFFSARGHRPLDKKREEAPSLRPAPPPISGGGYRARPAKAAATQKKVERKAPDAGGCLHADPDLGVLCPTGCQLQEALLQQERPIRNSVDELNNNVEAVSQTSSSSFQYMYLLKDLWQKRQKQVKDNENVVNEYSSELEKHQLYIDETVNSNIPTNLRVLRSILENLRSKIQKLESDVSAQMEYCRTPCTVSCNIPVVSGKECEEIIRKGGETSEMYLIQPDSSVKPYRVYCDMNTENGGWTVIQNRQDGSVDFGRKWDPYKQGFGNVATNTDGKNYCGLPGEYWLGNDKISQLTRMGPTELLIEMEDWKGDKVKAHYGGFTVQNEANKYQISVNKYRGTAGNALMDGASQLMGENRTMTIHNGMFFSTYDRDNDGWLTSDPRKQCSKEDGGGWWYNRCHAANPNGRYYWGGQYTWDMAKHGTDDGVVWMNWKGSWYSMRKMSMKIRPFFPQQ
T1 sequence (P02679 27-453): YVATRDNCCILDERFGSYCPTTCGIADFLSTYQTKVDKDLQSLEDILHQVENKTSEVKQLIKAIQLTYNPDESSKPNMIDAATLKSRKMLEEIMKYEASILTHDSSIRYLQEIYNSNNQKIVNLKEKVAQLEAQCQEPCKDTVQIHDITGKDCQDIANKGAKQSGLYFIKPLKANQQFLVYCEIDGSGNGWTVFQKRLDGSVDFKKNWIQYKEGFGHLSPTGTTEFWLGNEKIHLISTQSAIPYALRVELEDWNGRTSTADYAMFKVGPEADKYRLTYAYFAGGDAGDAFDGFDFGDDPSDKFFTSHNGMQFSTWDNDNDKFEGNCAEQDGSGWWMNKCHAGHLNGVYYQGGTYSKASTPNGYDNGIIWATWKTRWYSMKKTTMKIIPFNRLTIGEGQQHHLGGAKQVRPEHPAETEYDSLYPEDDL
Source text: FIG. 9A illustrates a schematic presentation of recombinant Coa fragments generated in this study. Coa is depicted in its secreted form Coa (27-636) lacking the signal peptide (1-26). The N-terminus of Coa (Coa-N; Coa 27-310) constitutes D1D2 prothrombin binding domain. The C-terminus of Coa (Coa-C; Coa 311-636) includes the central region and the tandem-repeat region. The Coa-C further divides into two parts, the Coa-R is corresponding to the tandem-repeat region covering residue 506-636, and the Coa-F fragment covering residues 311-505. Recombinant protein Coa-R0 corresponds to the residues 474-506 residues. […] FIG. 9B illustrates an ELISA assays of GST-tagged Coa fragments binding to immobilized Fg. Open circle, Coa (Coa 27-636); open upright triangle, Coa-N(Coa 27-310); open inverted triangle, Coa-C(Coa 311-636); closed circle, Coa-R (Coa 506-636); closed diamond, Coa-F (Coa 311-505). […] FIG. 9D illustrates the effect of peptide Efb-O on inhibition of rCoa binding to Fg. Increasing concentration of Efb-O were incubated with 4 nM GST-tagged Coa proteins in Fg-coated microtiter wells. Control, BSA.
[…] All proteins were diluted in TBS containing 1% BSA and 0.05% TWEEN® 20 and the ELISA assays were carried out at room temperature.

| Substance | Kd (Fibrinogen-D fragment) [µM] | inhibition of recombinant Coa binding to Fg (rCoa binding to Fg) |
| --- | --- | --- |
| sCoa-RI: synthetic peptide, first 27 residues of repeat region, Coa 506-532 (ETNAYNVTTHANGQVSYGARPTYKKPS) | 0.088 | – |
| sEfb-O: synthetic peptide mimicking the high affinity Fg-binding motif in Efb (Efb 68-98) (KYIKFKHDYNILEFNDGTFEYGARPQFN) | – | effectively inhibited recombinant Coa binding to Fg |

— patent publication US11407819B2, “Compositions and use of a fibrinogen binding motif present in EFB and COA for therapeutics and vaccines against Staphylococcus aureus” (priority 2013, dated 2022)
